# Experimental data taken from paper PMC5018213 (Journal of medicinal chemistry, 2016).
# Like-named read-outs stand apart in the source and are kept apart here.
# Legend:
# human PCFT = biological target: T1, human PCFT (Homo sapiens, UniProt Q96NT5); assay: PCFT transport competition, [3H]MTX uptake in R2/PCFT4 CHO cells; format: cell-based; conditions: for inhibition at 1 µM / inhibition at 10 µM: pH 5.5, read-out: Inhibition of [3H]MTX uptake; for Ki for PCFT [3H]MTX transport inhibition, fold higher than for PMX: pH 5.5, Dixon analysis
# T1 sequence (Q96NT5 1-459): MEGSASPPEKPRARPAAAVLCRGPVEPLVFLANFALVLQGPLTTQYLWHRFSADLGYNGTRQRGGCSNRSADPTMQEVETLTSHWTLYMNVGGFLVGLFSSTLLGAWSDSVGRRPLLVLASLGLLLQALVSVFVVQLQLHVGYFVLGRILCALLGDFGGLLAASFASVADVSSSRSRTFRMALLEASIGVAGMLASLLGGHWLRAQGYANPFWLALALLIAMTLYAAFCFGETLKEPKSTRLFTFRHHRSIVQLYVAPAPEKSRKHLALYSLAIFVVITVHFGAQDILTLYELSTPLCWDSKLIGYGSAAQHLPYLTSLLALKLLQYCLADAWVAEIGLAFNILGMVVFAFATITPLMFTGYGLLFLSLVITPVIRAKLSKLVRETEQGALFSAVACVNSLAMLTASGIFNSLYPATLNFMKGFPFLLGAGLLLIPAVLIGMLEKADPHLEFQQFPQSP
# [1] = tested on: CHO subline engineered to express human RFC (PC43-10); assay: Proliferation assay, RFC-expressing PC43-10 CHO cells; conditions: PC43-10, 96 h, read-out: IC50 PC43-10 (RFC)
# [2] = tested on: KB human tumor cells (express RFC, FRα, and PCFT); format: cell-based
# human GARFTase = biological target: T2, human GARFTase (Homo sapiens, UniProt P22102); format: biochemical; conditions: from Ki values, Table 2
# T2 sequence (P22102 810-1010 limits assumed): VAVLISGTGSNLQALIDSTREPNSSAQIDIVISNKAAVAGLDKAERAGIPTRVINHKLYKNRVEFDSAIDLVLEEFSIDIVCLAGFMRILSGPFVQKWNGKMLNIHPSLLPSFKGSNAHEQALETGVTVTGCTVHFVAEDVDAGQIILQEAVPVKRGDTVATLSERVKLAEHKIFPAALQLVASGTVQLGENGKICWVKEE
# [3] = tested on: IGROV1 ovarian tumor xenografts; assay: In vivo efficacy trial with IGROV1 xenografts in SCID mice; conditions: folate-deficient diet
# FRβ (D4 CHO cells) = FRβ (D4 CHO cells) (Homo sapiens, UniProt P14207); assay: FR binding assay, [3H]folic acid competition in D4 cells; conditions: folic acid = 1
# FRα (RT16 CHO cells) = FRα (RT16 CHO cells) (Homo sapiens, UniProt P15328); assay: FR binding assay, [3H]folic acid competition in RT16 cells; conditions: folic acid = 1
# Sequence of FRα (RT16 CHO cells) (P15328 25-257): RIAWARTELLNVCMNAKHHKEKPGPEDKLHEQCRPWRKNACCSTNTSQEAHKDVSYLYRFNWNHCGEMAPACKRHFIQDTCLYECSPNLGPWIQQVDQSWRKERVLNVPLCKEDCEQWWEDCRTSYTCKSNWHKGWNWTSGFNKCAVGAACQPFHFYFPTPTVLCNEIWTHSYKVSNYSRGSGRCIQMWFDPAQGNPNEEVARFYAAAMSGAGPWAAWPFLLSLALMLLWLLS
# Sequence of FRβ (D4 CHO cells) (P14207 17-255): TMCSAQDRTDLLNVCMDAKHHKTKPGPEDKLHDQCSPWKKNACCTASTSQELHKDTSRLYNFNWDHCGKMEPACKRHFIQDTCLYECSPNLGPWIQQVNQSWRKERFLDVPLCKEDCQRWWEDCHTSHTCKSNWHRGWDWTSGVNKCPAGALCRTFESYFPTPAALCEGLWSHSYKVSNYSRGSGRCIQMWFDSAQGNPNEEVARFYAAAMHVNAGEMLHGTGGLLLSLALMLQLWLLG
structure (smiles),measurement,setting,value
Nc1nc2[nH]c(CCCc3ccc(C(=O)N[C@@H](CCC(=O)O)C(=O)O)cc3)cc2c(=O)[nH]1 [Compound 1],inhibition at 1 µM,human PCFT,30 to 60%
same,inhibition at 10 µM,human PCFT,80 to 90%
same,IC50,[1],649 nM
Nc1nc2[nH]c(CCCc3ccc(C(=O)N[C@@H](CCC(=O)O)C(=O)O)s3)cc2c(=O)[nH]1 [Compound 3],IC50,[2]; read-out: IC50 KB,0.26 nM
same,IC50,[2]; read-out: IC50 KB (+FA),101 nM
same,IC50,[1],101 nM
"Nc1nc2[nH]c(CCNc3ccc(C(=O)N[C@@H](CCC(=O)O)C(=O)O)cc3)cc2c(=O)[nH]1 [Compound 4, (4-{[2-(2-Amino-4-oxo-4,7-dihydro-3H-pyrrolo[2,3-d]pyrimidin-6-yl)ethyl]amino}benzoyl)-L-glutamic acid]",Improvement in GARFTase inhibitory potency over C (1),human GARFTase,approximately 3 fold
same,T-C (tumor growth delay),[3]; 384 mg/kg total dose,9 days
same,log10 kill,[3]; 384 mg/kg total dose,1.4
same,Highest non-toxic total dose,[3]; Q3dx4 iv,600 mg/kg
same,Body weight loss (nadir),"[3]; during treatment, reversible",17.0–17.3%
same,"Relative binding affinity, % of the affinity for folic acid, FRβ",FRβ (D4 CHO cells),60–110%
same,"Relative binding affinity, % of the affinity for folic acid, FRα",FRα (RT16 CHO cells),60–110%
"CC(=O)N(CCc1cc2c(=O)[nH]c(N)nc2[nH]1)c1ccc(C(=O)N[C@@H](CCC(=O)O)C(=O)O)cc1 [Compound 6, (4-{N-[2-(2-amino-4-oxo-4,7-dihydro-3H-pyrrolo[2,3-d]pyrimidin-6-yl)ethyl]acetamido}benzoyl)-L-glutamic acid]","Ki for PCFT [3H]MTX transport inhibition, fold higher than for PMX",human PCFT,~ 18 fold
"Nc1nc2[nH]c(CCOc3ccc(C(=O)N[C@@H](CCC(=O)O)C(=O)O)cc3)cc2c(=O)[nH]1 [Compound 8, {4-[2-(2-amino-4-oxo-4,7-dihydro-3H-pyrrolo[2,3-d]pyrimidin-6-yl)ethoxy]benzoyl}-L-glutamic acid]",Improvement in GARFTase inhibitory potency over C (1),human GARFTase,approximately 3 fold
same,"Ki for PCFT [3H]MTX transport inhibition, fold higher than for PMX",human PCFT,~ 7 fold
same,"Relative binding affinity, % of the affinity for folic acid, FRβ",FRβ (D4 CHO cells),60–110%
same,"Relative binding affinity, % of the affinity for folic acid, FRα",FRα (RT16 CHO cells),60–110%
"Nc1nc2[nH]c(CCSc3ccc(C(=O)N[C@@H](CCC(=O)O)C(=O)O)cc3)cc2c(=O)[nH]1 [Compound 9, (4-{[2-(2-amino-4-oxo-4,7-dihydro-3H-pyrrolo[2,3-d]pyrimidin-6-yl)ethyl]thio}benzoyl)-L-glutamic acid]","Relative binding affinity, % of the affinity for folic acid, FRβ",FRβ (D4 CHO cells),60–110%
same,"Relative binding affinity, % of the affinity for folic acid, FRα",FRα (RT16 CHO cells),60–110%
"Nc1nc2[nH]cc(CCc3ccc(C(=O)N[C@@H](CCC(=O)O)C(=O)O)cc3)c2c(=O)[nH]1 [PMX, pemetrexed]",inhibition at 1 µM,human PCFT,≥ 90%
same,inhibition at 10 µM,human PCFT,≥ 90%
